Test results from publication PMC5392334, “Discovery and characterization of a novel irreversible EGFR mutants selective and potent kinase inhibitor CHMFL-EGFR-26 with a distinct binding mode” (Oncotarget, 2017).

How the values were obtained:
BaF3-TEL-EGFR-C797S = assay: Anti-proliferation, BaF3 isogenic cell lines (CellTiter-Glo); format: cell-based; conditions: Mus musculus, 72 hours, triplet testing
[1] = tested on: BaF3-FL-EGFR-del19-T790M-C797S; assay: as above; format: cell-based; conditions: Mus musculus, 72 hours, triplet testing
BaF3-TEL-EGFR-L858R = assay: as above; format: cell-based; conditions: Mus musculus, 72 hours, triplet testing
CHL = assay: Anti-proliferation, normal cells (CellTiter-Glo); conditions: Cricetulus griseus, 72 h
Method: (§2) Cells were grown in 96-well culture plates (2500-3000/well). For adherent cell lines, compounds of various concentrations were added into the plates after cells were cultured for 12 hours. Cell proliferation was determined after treatment with compounds for 72 hours. Cell viability was measured using the CellTiter–Glo assay (Promega, USA) according to the manufacturer's instructions, and luminescence was measured in a multi-label reader (Envision, PerkinElmer, USA). Data were normalized to control groups (DMSO) and represented by the mean of three independent measurements with standard error <20%. GI50 values were calculated using Prism 5.0 (GraphPad Software, San Diego, CA).

[2] = tested on: BaF3-TEL-EGFR-T790M-C797S; assay: Anti-proliferation, BaF3 isogenic cell lines (CellTiter-Glo); format: cell-based; conditions: Mus musculus, 72 hours, triplet testing
BaF3-TEL-EGFR-T790M = assay: as above; format: cell-based; conditions: Mus musculus, 72 hours, triplet testing
[3] = tested on: BaF3-TEL-EGFR-L858R-C797S; assay: as above; format: cell-based; conditions: Mus musculus, 72 hours, triplet testing
BaF3-TEL-EGFR = assay: as above; format: cell-based; conditions: Mus musculus, 72 hours, triplet testing
H1975 (EGFRL858R/T790M) = assay: Anti-proliferation, NSCLC cell lines (CellTiter-Glo); format: cell-based, human; conditions: Homo sapiens, NCI-H1975; H1975 (EGFRL858R/T790M); 72 hours; triplet testing
Method: (§1) The human cancer cell lines H1975, HCC827, H2122, CHO, CHL and H1355 were purchased from the American Type Culture Collection (ATCC) (Manassas, VA, USA). PC9 cell line was purchased from the Sigma-Aldrich (St. Louis, MO, USA). A549, H3255 were purchased from Cobioer Biosciences CO., LTD (Nanjing, China). […] A549 and H1355 were cultured in F-12K Nutrient Mixture (kaighn's Modification) (Gibco, USA) with 10% FBS and supplemented with 2% L-glutamine and 1% pen/strep. H3255 was cultured in BEGM media (LONZA, USA) with 10% FBS and supplemented with 2% L-glutamine and 1% pen/strep.

BaF3-FL-EGFR-del19-T790M = assay: Anti-proliferation, BaF3 isogenic cell lines (CellTiter-Glo); format: cell-based; conditions: Mus musculus, 72 hours, triplet testing
[4] = tested on: BaF3-FL-EGFR-L858R-T790M-C797S; assay: as above; format: cell-based; conditions: Mus musculus, 72 hours, triplet testing
BaF3-FL-EGFR-L858R-T790M = assay: as above; format: cell-based; conditions: Mus musculus, 72 hours, triplet testing
H1703 (EGFR wt) = assay: Anti-proliferation, NSCLC cell lines (CellTiter-Glo); format: cell-based; conditions: Homo sapiens, NCI-H1703, 72 hours, triplet testing
Method: as §1

H1355(EGFR wt) = assay: as above; format: cell-based; conditions: Homo sapiens, NCI-H1355, 72 hours, triplet testing
Method: as §1

A549 (EGFR wt) = assay: as above; format: cell-based; conditions: Homo sapiens, 72 hours, triplet testing
Method: as §1

H2122 (EGFR wt) = assay: as above; format: cell-based; conditions: Homo sapiens, NCI-H2122, 72 hours, triplet testing
Method: as §1

PC-9 (EGFR del19) = assay: as above; format: cell-based; conditions: Homo sapiens, 72 hours, triplet testing
Method: as §1

H3255 (EGFRL858R) = assay: as above; format: cell-based; conditions: Homo sapiens, NCI-H3255, 72 hours, triplet testing
Method: as §1

HCC827 (EGFR del19) = assay: as above; format: cell-based; conditions: Homo sapiens, 72 hours, triplet testing
Method: as §1

Parental BaF3 = assay: Anti-proliferation, BaF3 isogenic cell lines (CellTiter-Glo); format: cell-based; conditions: Mus musculus; Parental BaF3; 72 hours; triplet testing
CHO = assay: Anti-proliferation, normal cells (CellTiter-Glo); conditions: Cricetulus griseus, 72 h
Method: as §2

BaF3-FL-EGFR-del19 = assay: Anti-proliferation, BaF3 isogenic cell lines (CellTiter-Glo); format: cell-based; conditions: Mus musculus, 72 hours, triplet testing
BaF3-IGF1R = assay: Anti-proliferative effects, IGF1R transformed isogenic BaF3 cells; format: cell-based; conditions: Mus musculus, read-out: IC50 (anti-proliferative; GI50)
[5] = quoted in discussion for comparison; species, route and reference not given; cited from earlier work
MNK2 kinase = conditions: cited from earlier work
[6] = tested on: EGFR Y1068 phosphorylation in BaF3-TEL-EGFR cells; assay: EGFR Y1068 auto-phosphorylation in transformed BaF3 cells; conditions: Mus musculus, BaF3, 4 h, read-out: EC50, phosphorylation of EGFR Y1068
BaF3-INSR = assay: Anti-proliferative effects, INSR transformed isogenic BaF3 cells; format: cell-based; conditions: Mus musculus, read-out: IC50 (anti-proliferative; GI50)

Row | Compound | GI50 (BaF3-TEL-EGFR-C797S) [nM] | GI50 [1] [nM] | GI50 (BaF3-TEL-EGFR-L858R) [nM] | GI50 (CHL) [nM] | GI50 [2] [nM] | GI50 (BaF3-TEL-EGFR-T790M) [nM] | GI50 [3] [nM] | GI50 (BaF3-TEL-EGFR) [nM] | GI50 (H1975 (EGFRL858R/T790M)) [nM] | GI50 (BaF3-FL-EGFR-del19-T790M) [nM] | GI50 [4] [nM] | GI50 (BaF3-FL-EGFR-L858R-T790M) [nM] | GI50 (H1703 (EGFR wt)) [nM] | GI50 (H1355(EGFR wt)) [nM] | GI50 (A549 (EGFR wt)) [nM] | GI50 (H2122 (EGFR wt)) [nM] | GI50 (PC-9 (EGFR del19)) [nM] | GI50 (H3255 (EGFRL858R)) [nM] | GI50 (HCC827 (EGFR del19)) [nM] | GI50 (Parental BaF3) [nM] | also measured
1 | CCC(=O)N1CCC[C@@H](n2nc(-c3ccc(OCc4cccc(C)n4)c(Cl)c3)c3c(N)ncnc32)C1 [CHMFL-EGFR-26R] | 6600 | 7300 | > 10000 | > 10000 | > 10000 | > 10000 | > 10000 | > 10000 | > 10000 | 7100 | > 10000 | > 10000 | 9400 | > 10000 | > 10000 | > 10000 | > 10000 | > 10000 | > 10000 | > 10000 | GI50 (CHO): > 10000 nM; GI50 (BaF3-FL-EGFR-del19): > 10000 nM
2 | C=CC(=O)Nc1cc(Nc2nccc(-c3cn(C)c4ccccc34)n2)c(OC)cc1N(C)CCN(C)C [AZD9291, reference compound] | 590 | 200 | < 0.3 | 2900 | 550 | 13 | 590 | 300 | 52 | < 0.3 | 310 | < 0.3 | 3500 | 3000 | 3500 | 1200 | 2 | 33 | 1 | 1500 | IC50 (BaF3-IGF1R): 560 nM; T1/2 [5]: 3.1 h; IC50 (MNK2 kinase): 95 nM; EC50 [6]: 63 nM; IC50 (BaF3-INSR): 500 nM; GI50 (CHO): 4200 nM; GI50 (BaF3-FL-EGFR-del19): 1 nM
